# Source: BindingDB's records for patent US20260014133 (St. Jude''s Chidren''s Research Hospital, Inc., 2026)
# Target: DNA damage-binding protein 1/Protein cereblon (Homo sapiens, UniProt Q96SW2)
# Assay: CRBN Fluorescence Polarization Assay
# Procedure: In this competitive fluorescent polarization assay Cy5 conjugated lenalidomide analog (Cy5-O-Len)13 was used as a fluorescent probe. 6×His-CRBN-DDB1 protein (200 nM) and Cy5-O-Len probe (30 nM) were combined in 20 mM HEPES pH 7, 150 mM NaCl, 0.005% Tween-20 assay buffer. 20 μL of this assay cocktail was dispensed into wells of Corning 3821 black 384-well plates. Compounds were transferred to the assay plate from a dose-response plate using a Pintool on a Biomek FXP Laboratory Automation Workstation (Beckman Coulter). The plates were incubated in the dark for 1 hour at room temperature and then read on an Envision plate reader (PerkinElmer, Massachusetts, USA). IC50 values were determined using a proprietary software RISE (Robust Investigation of Screening Experiments), developed in house on the Pipeline Pilot platform (Biovia, v. 17.2.0). Data represent the mean of three independent determinations.
smiles,measurement,value
"O=C1CCC(N2Cc3cc(NC(=O)Cc4ccccn4)ccc3C2=O)C(=O)N1 (stereo unspecified) [US20260014133, Compound 28]",IC50,< 1000 nM
